# According to paper PMC7363588, “Mapping of the FGF14:Nav1.6 complex interface reveals FLPK as a functionally active peptide modulating excitability” (Physiological Reports, 2020):
# “Also recorded” adds a separate entry of the source. Peptide text beside a SMILES is read from it.
# Molecular target: T1, FGF14^V160A (Homo sapiens, UniProt Q92915, V155A)
# T1 construct: aa 64–252); 6X His (N); made in house; host or cells: E. coli BL21 (DE3) pLys
# T1 sequence (Q92915 64-252 isoform Q92915-2 V160A): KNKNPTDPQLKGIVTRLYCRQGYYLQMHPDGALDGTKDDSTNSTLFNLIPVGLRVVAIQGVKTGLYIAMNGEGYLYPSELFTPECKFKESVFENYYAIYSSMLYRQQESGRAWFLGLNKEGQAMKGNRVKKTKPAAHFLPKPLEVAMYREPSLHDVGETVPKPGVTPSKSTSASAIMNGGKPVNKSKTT
# Experiment: SPR binding to FGF14^V160A
# Excerpt: Plasmids used in this study derived from the following clones: human FGF14‐1b isoform (accession number: NM_175929.2) and human Nav1.6 (accession number: NM_014191.3). The CLuc‐FGF14, CD4‐Nav1.6‐NLuc, constructs and the pcDNA3.1 vector (Invitrogen, Carlsbad, CA) were engineered and characterized as previously described (Goetz et al., 2009; Shavkunov et al., 2012,2013,2015; Ali et al., 2016, 2018; Wadsworth et al., 2019). The plasmid pGL3 expressing full length Firefly (Photinus pyralis) luciferase was a gift from Dr. P. Sarkar (Department of Neurology, UTMB). For protein purification studies, cDNAs encoding FGF14‐1b (accession number NP_787125; aa 64–252) or the C‐terminal tail of Nav1.6 (accession number #NP_001171455; aa 1756–1939) were subcloned into suitable pET bacterial expression vectors (pET28a‐FGF14; pET30a‐Nav1.6) with a 6X His‐tag at the N‐terminal site; these plasmids were a gift of Dr. Moosa Mohammadi (NYU, Langone Medical Center). The mutation coding for FGF14^V160A was generated by site‐directed mutagenesis and PCR using FGF14‐1b as a template described previously (Ali et al., 2016). For electrophysiological studies FGF14‐GFP (human) and FGF14‐ΔNT‐GFP (human) were cloned into the GFP plasmid (pQBI‐fC2; Quantum Biotechnology Inc., Montreal, Canada) as previously described.
# Upon transformation with corresponding cDNA clones, the recombinant proteins FGF14, FGF14^V160A and Nav1.6 C‐terminal tail were expressed in E. coli BL21 (DE3) pLys (Invitrogen) after induction with 0.1 mM isopropyl thio‐β‐D‐galacto‐pyranoside (IPTG) for 24 hr at 16°C. […]
# SPR experiments were performed on a Biacore T100 (GE Healthcare Bio‐Sciences, Pittsburgh, PA), and the interaction of FGF14 and Nav1.6 channel toward FLPK, PLEV and EYYV (1–100 µM) were studied at 25°C. […] Maximal equilibrium responses were plotted against peptide concentrations and association rate constant (kon), dissociation rate constatnt (koff) were determined. […]
# [1] = CM5, 25°C, 1–100 µM, RU 18,000, N.M. = not measurable
structure (smiles),measurement,setting,value
CC(=O)N[C@@H](Cc1ccccc1)C(=O)N[C@@H](CC(C)C)C(=O)N1CCC[C@H]1C(=O)N[C@@H](CCCCN)C(N)=O [FLPK] (Ac-FLPK-NH2),"koff, dissociation rate constant",[1],N.M.
same,"kon, association rate constant",[1],N.M.
same,binding to FGF14^V160A,peptide 1–100 µM,no measurable binding; also recorded: no binding of FLPK was detected
